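1) Cells in 96-well plates. 2) Compound, 48 h, 5 concentrations. 3) Linear interpolation between surrounding doses. 4) Unreached endpoint = highest concentration. GI50 is the concentration that inhibits growth by half. At the TGI there is no net growth.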
Assays:
Assay in all cases: growth of human tumour cells (NCI), 48 h; in the data active = GI50 below about 0.43 µM; inactive = the rest
[1] = test system: 786-0 renal
[2] = test system: A498 renal
[3] = test system: A549 NSCLC
[4] = test system: ACHN renal
[5] = test system: BT-549 breast
[6] = test system: CAKI-1 renal
[7] = test system: CCRF-CEM leukemia
[8] = test system: COLO 205 colon
[9] = test system: DU-145 prostate
[10] = test system: EKVX NSCLC
[11] = test system: HCC-2998 colon
[12] = test system: HCT-116 colon
[13] = test system: HCT-15 colon
[14] = test system: HL-60(TB) leukemia
[15] = test system: HOP-62 NSCLC
[16] = test system: HOP-92 NSCLC
[17] = test system: HS 578T breast
[18] = test system: HT29 colon
[19] = test system: IGROV1 ovarian
[20] = test system: K-562 leukemia
[21] = test system: KM12 colon
[22] = test system: LOX IMVI melanoma
[23] = test system: M14 melanoma
[24] = test system: MALME-3M melanoma
[25] = test system: MCF7 breast
[26] = test system: MDA-MB-231 breast
[27] = test system: MDA-MB-435
[28] = test system: MDA-MB-468 breast
[29] = test system: MOLT-4 leukemia
[30] = test system: NCI-H226 lung
[31] = test system: NCI-H23 lung
[32] = test system: NCI-H460 lung
[33] = test system: NCI-H522 lung
[34] = test system: NCI/ADR-RES ovarian
[35] = test system: OVCAR-3 ovarian
[36] = test system: OVCAR-4 ovarian
[37] = test system: OVCAR-5 ovarian
[38] = test system: OVCAR-8 ovarian
[39] = test system: PC-3 prostate
[40] = test system: RPMI-8226 leukemia
[41] = test system: SF-268 CNS
[42] = test system: SF-295 CNS
[43] = test system: SF-539 CNS
[44] = test system: SK-MEL-2 melanoma
[45] = test system: SK-MEL-28 melanoma
[46] = test system: SK-MEL-5 melanoma
[47] = test system: SK-OV-3 ovarian
[48] = test system: SN12C renal
[49] = test system: SNB-19 CNS
[50] = test system: SNB-75 CNS
[51] = test system: SR leukemia
[52] = test system: SW-620 colon
[53] = test system: T-47D breast
[54] = test system: TK-10 renal
[55] = test system: U251 CNS
[56] = test system: UACC-257 melanoma
[57] = test system: UACC-62 melanoma
[58] = test system: UO-31 renal

COc1cc(/C=C/C(=O)c2ccccc2)ccc1Oc1nc(Nc2ccc(F)cc2)nc(N(C)C)n1
33.9 µM: TGI [40]
19 µM: TGI [18]
37.8 µM: TGI [23]
41.7 µM: TGI [36]
3.97 µM: TGI [52]
22.1 µM: TGI [48]
26.7 µM: TGI [43]
48.3 µM: TGI [37]
15 µM: TGI [25]
inactive: GI50 [1] 20.5 µM | GI50 [2] 27 µM | GI50 [3] 11.7 µM | GI50 [4] 8.29 µM | GI50 [5] 12 µM | GI50 [6] 5.72 µM | GI50 [7] 3.38 µM | GI50 [8] 15.1 µM | GI50 [9] 27.3 µM | GI50 [10] 4.73 µM | GI50 [11] 12.9 µM | GI50 [12] 3.21 µM | GI50 [13] 3.31 µM | GI50 [14] 8.38 µM | GI50 [15] 26.6 µM | GI50 [16] 2.08 µM | GI50 [17] 5.44 µM | GI50 [18] 4.36 µM | GI50 [19] 18.7 µM | GI50 [20] 3.57 µM | GI50 [21] 14.9 µM | GI50 [22] 1.6 µM | GI50 [23] 13 µM | GI50 [24] 15.9 µM | GI50 [25] 3.08 µM | GI50 [26] 6.92 µM | GI50 [27] 7.39 µM | GI50 [28] 3.21 µM | GI50 [29] 2.56 µM | GI50 [30] 4.94 µM | GI50 [31] 12.6 µM | GI50 [32] 9.14 µM | GI50 [33] 5.15 µM | GI50 [34] 7.04 µM | GI50 [35] 11.8 µM | GI50 [36] 5.85 µM | GI50 [37] 13.9 µM | GI50 [38] 5.9 µM | GI50 [39] 10 µM | GI50 [40] 2.83 µM | GI50 [41] 12.2 µM | GI50 [42] 6.89 µM | GI50 [43] 13.8 µM | GI50 [44] 4.68 µM | GI50 [45] 12.2 µM | GI50 [46] 6.21 µM | GI50 [47] 48.6 µM | GI50 [48] 7.32 µM | GI50 [49] 10.2 µM | GI50 [50] 4.7 µM | GI50 [51] 2.9 µM | GI50 [52] 1.81 µM | GI50 [53] 3.36 µM | GI50 [54] 18 µM | GI50 [55] 2.84 µM | GI50 [56] 6.44 µM | GI50 [57] 4.99 µM | GI50 [58] 4.4 µM
22.6 µM: TGI [34]
95.9 µM: TGI [50]
3.15 µM: TGI [22]
56.4 µM: TGI [17]
87 µM: TGI [1]
34.2 µM: TGI [46]
77.2 µM: TGI [56]
28.6 µM: TGI [5]
21.5 µM: TGI [30]
30 µM: TGI [32]
37.4 µM: TGI [4]
24.2 µM: TGI [57]
28.4 µM: TGI [27]
39.6 µM: TGI [24]
51.4 µM: TGI [31]
19.9 µM: TGI [28]
76.5 µM: TGI [11]
48.5 µM: TGI [42]
20.7 µM: TGI [44]
59.2 µM: TGI [33]
13.4 µM: TGI [55]
21.9 µM: TGI [26]
> 100 µM: TGI [2] | TGI [3] | TGI [6] | TGI [7] | TGI [8] | TGI [9] | TGI [10] | TGI [15] | TGI [19] | TGI [20] | TGI [21] | TGI [29] | TGI [35] | TGI [39] | TGI [41] | TGI [47] | TGI [51] | TGI [53] | TGI [54] | TGI [58]
67.1 µM: TGI [14]
32.1 µM: TGI [45]
27.6 µM: TGI [49]
12.9 µM: TGI [12] | TGI [13] | TGI [16]
26.5 µM: TGI [38]
